Assay results taken from patent publication US10494384B2, “Urea peptoid boric acid compound, pharmaceutical composition thereof, preparation method therefor, and uses thereof” (Peking University, priority 2015, dated 2019).
Like-named read-outs stand apart in the source and are kept apart here.

Key:
[1] = test system: MGC803 stomach cancer cells; test: anti-tumor activity in vitro (IC50), MTT; format: cell-based; conditions: Homo sapiens, MGC-803, MTT, 72 h
Protocol: (§1) Cancer cells were cultured in vitro. When cell growth reached logarithmic phase, the cells were collected and centrifuged at 1000 rpm for 5 min, before the supernate was removed and the cells were suspended in a moderate amount of medium, and then the concentration of cell was adjusted to 3.5×10^4/mL. The cell suspension was added into a 96-well plate with 100 μL per well and cultured in a cell incubator (37° C., 5% CO2) for 24 h. Then test drugs of different end concentrations were added, and the negative control group was added DMSO (end concentration was 0.5%), while each group afforded three repetitive holes. After cultivation for another 72 h in the cell incubator, a solution containing 5 mg/ml MTT (20 μL) was added into each well and the 96-well plate was placed at 37° C. for 3 h. To each well was added 150 μL DMSO, after oscillation in a shaking table for 5 min, the optical density (OD) values at 492 nm/620 nm were measured. IC50 values were calculated by Prism Graphpad statistical software.

[2] = test system: Hela; test: anti-tumor activity in vitro (IC50), MTT; format: cell-based; conditions: Homo sapiens, 72 h
Protocol: as §1

[3] = test system: HepG2 liver cancer cells; test: anti-tumor activity in vitro (IC50), MTT; format: cell-based; conditions: Homo sapiens, 72 h
Protocol: as §1

[4] = target: T1, 20S proteasome extracted from rat liver (PGPH) (Rattus norvegicus, UniProt P28073+Q9JHW0); test: inhibition of 20S proteasome, PGPH activity (fluorescent peptide); format: biochemical; conditions: for inhibition at 0.2 µM / inhibition at 2 µM / inhibition at 20 µM: rat liver 20S proteasome, 37° C., 1 h, read-out: inhibition rates (%) PGPH
T1 construct: 20S proteasome extracted from rat liver; from tissue; host or cells: rat liver
Protocol: (§2) 1 μg of 20S proteasome extracted from rat liver was incubated with a 100 μL solution containing various concentrations of the present compounds, 50 μM fluorescent peptides and 20 mM Tris-HCl at 37° C. for 1 h, respectively. […] 0.1% DMSO was used as a solvent control. Compared with the fluorescence of solvent control, an inhibition rate or IC50 value was calculated.

[5] = target: T2, 20S proteasome extracted from rat liver (T-L) (Rattus norvegicus, UniProt P40112+Q9JHW0); test: inhibition of 20S proteasome, T-L activity (fluorescent peptide); format: biochemical; conditions: for inhibition at 0.2 µM / inhibition at 2 µM / inhibition at 20 µM: rat liver 20S proteasome, 37° C., 1 h, read-out: inhibition rates (%) T-L
T2 construct: 20S proteasome extracted from rat liver; from tissue; host or cells: rat liver
Protocol: as §2

[6] = test system: MCF-7, breast cancer; test: preliminary anti-tumor screening in vitro, SRB method; format: cell-based; conditions: Homo sapiens, read-out: inhibition rates (%) MCF-7; for inhibition at 0.1 µM: MCF7, 0.1 μM; for inhibition at 1 µM: MCF7, 1 μM; for inhibition at 10 µM: MCF7, 10 μM
Outline: (§3)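 Inhibition rates measured at 0.1, 1 or 10 μM compound; cell growth read by MTT for Hela, SRB for BGC-823, MCF-7 and A549.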

[7] = test system: BGC-823, liver cancer; test: as above; format: cell-based; conditions: Homo sapiens, read-out: inhibition rates (%) BGC-823
Outline: as §3

[8] = test system: A549, human lung cancer; test: as above; format: cell-based; conditions: read-out: inhibition rates (%) A549
Outline: as §3

[9] = target: T3, 20S proteasome extracted from rat liver (CT-L) (Rattus norvegicus, UniProt P18421+P28075); test: inhibition of 20S proteasome, CT-L activity (fluorescent peptide); format: biochemical; conditions: for inhibition at 0.2 µM / inhibition at 2 µM / inhibition at 20 µM: rat liver 20S proteasome, 37° C., 1 h, read-out: inhibition rates (%) CT-L
T3 construct: 20S proteasome extracted from rat liver; from tissue; host or cells: rat liver
Protocol: as §2

[10] = test system: Hela, human cervical carcinoma; test: preliminary anti-tumor screening in vitro, MTT method; format: cell-based; conditions: read-out: inhibition rates (%) Hela
Outline: as §3

[11] = stomach cancer cells, read-out: IC50 (μM) MGC803
[12] = liver cancer cells, read-out: IC50 (μM) HepG2

Row | SMILES | inhibition at 0.1 µM [6] [%] | inhibition at 1 µM [6] [%] | inhibition at 10 µM [6] [%] | inhibition at 0.1 µM [7] [%] | inhibition at 1 µM [7] [%] | inhibition at 10 µM [7] [%] | inhibition at 0.1 µM [8] [%] | inhibition at 1 µM [8] [%] | inhibition at 10 µM [8] [%] | inhibition at 0.2 µM [9] [%] | inhibition at 2 µM [9] [%] | inhibition at 20 µM [9] [%] | inhibition at 0.2 µM [4] [%] | inhibition at 2 µM [4] [%] | inhibition at 20 µM [4] [%] | inhibition at 0.1 µM [10] [%] | inhibition at 1 µM [10] [%] | inhibition at 10 µM [10] [%] | inhibition at 0.2 µM [5] [%] | inhibition at 2 µM [5] [%] | also measured
1 | CC(C)C[C@H](NC(=O)[C@H](Cc1ccccc1)NC(=O)N1CCc2ccccc2C1)B(O)O [Example 28, N-L-phenylalanyl-L-leucine borate-N′-1,2,3,4-tetrahydroisoquinoline-urea] |  |  |  |  |  |  |  |  |  |  |  |  |  |  |  |  |  |  |  |  | IC50 ([1]; read-out: IC50 MGC803): 0.00498 µM; IC50 [1, 11]: 0.00396 µM; IC50 [2]: 0.532 µM; IC50 ([3]; read-out: IC50 HepG2): 0.00838 µM; IC50 [3, 12]: 0.0194 µM; IC50 [4]: 0.02 µM; IC50 [5]: 2.38 µM
2 | COc1ccc(OC)c(CNC(=O)N[C@@H](Cc2ccccc2)C(=O)N[C@@H](CC(C)C)B(O)O)c1 [Example 18, N-L-phenylalanyl-L-leucine borate-N′-(2,5-dimethoxy-benzylamine)-urea] | 25.8 | 37.5 | 47.8 | 41.4 | 46.6 | 50 | 44.3 | 63.5 | 66 | 82.1 | 96.7 | 98.3 | 9.81 | 68.8 | 97.1 | 37.8 | 39.6 | 46.5 | 4.99 | 56.9 | IC50 [1, 11]: 0.0106 µM; IC50 [3, 12]: 0.0528 µM; inhibition at 20 µM [5]: 91%
3 | CC(C)C[C@H](NC(=O)[C@H](Cc1ccccc1)NC(=O)NCc1ccc(F)c(F)c1)B(O)O [Example 35, N-L-phenylalanyl-L-leucine borate-N′-3,4-difluoro-benzylamine-urea] |  |  |  |  |  |  |  |  |  |  |  |  |  |  |  |  |  |  |  |  | IC50 ([1]; read-out: IC50 MGC803): 0.0167 µM; IC50 [1, 11]: 0.0067 µM; IC50 [2]: 0.255 µM; IC50 ([3]; read-out: IC50 HepG2): 0.019 µM; IC50 [3, 12]: 0.0388 µM; IC50 [9]: 0.002 µM; IC50 [4]: 0.11 µM; IC50 [5]: 0.34 µM
4 | CC(C)C[C@H](NC(=O)[C@H](Cc1ccccc1)NC(=O)NCc1ccccc1)B(O)O [Example 14, N-L-phenylalanyl-L-leucine borate-N′-benzylamine-urea] | 51.9 | 67.8 | 72.2 | 12.9 | 33.5 | 38.2 | 2.67 | 13 | 33.3 | 82.1 | 96.1 | 98.9 | 6.46 | 84.6 | 97 | 40.3 | 43.2 | 53.5 | 5.04 | 57.8 | IC50 [1, 11]: 0.0188 µM; IC50 [3, 12]: 0.0873 µM; inhibition at 20 µM [5]: 88.4%
5 | COc1ccc(NC(=O)[C@H](Cc2ccccc2)NC(=O)N[C@@H](CC(C)C)B2OC3C[C@H]4C[C@H](C4(C)C)[C@@]3(C)O2)cc1 (stereo partly drawn) [Example 9, N-L-leucine borate pinanediol ester-N′-(p-methoxy-phenylcarbamoyl)-L-phenylalanine-urea] | 6.66 | 11.7 | 13.8 | 8.33 | 7.84 | 14.7 | 4.05 | 10.3 | 36.2 | -12.2 | 44.9 | 76.8 | 1.67 | 6.26 | 34.1 | 11.8 | 14.3 | 32.1 | 1.54 | 9 | inhibition at 20 µM [5]: 21.5%; melting point: 78 to 80 °C
6 | CC(C)C[C@H](NC(=O)N[C@@H](Cc1ccccc1)C(=O)Nc1cnccn1)B1OC2C[C@H]3C[C@H](C3(C)C)[C@@]2(C)O1 (stereo partly drawn) [Example 7, N-L-leucine borate pinanediol ester-N′-(pyrazin-2-ylcarbamoyl)-L-phenylalanine-urea] | 4.81 | 7.4 | 11.7 | 2.21 | 0.62 | 6.88 | -1.53 | 2.54 | 15.5 | 23.4 | 47.2 | 82.6 | 5.76 | 1.95 | 0.485 | 0.48 | 5.11 | 14.9 | -16.5 | -12.6 | inhibition at 20 µM [5]: 25.3%; melting point: 93 to 95 °C
7 | CC(C)C[C@H](NC(=O)N[C@@H](Cc1ccccc1)C(=O)Nc1cccc(OCc2ccccc2)c1)B1OC2C[C@H]3C[C@H](C3(C)C)[C@@]2(C)O1 (stereo partly drawn) [Example 5, N-L-leucine borate pinanediol ester-N′-(3-benzyloxy-phenylcarbamoyl)-L-phenylalanine-urea] | 6.37 | 8.84 | 8.44 | 5.47 | 3.19 | 8.66 | 3.25 | 10.3 | 30.3 | -17.8 | -15.1 | -3.13 | 2.67 | 3.15 | 9.71 | 7.42 | 10.3 | 21.8 | -5.23 | -1.52 | inhibition at 20 µM [5]: 0.968%; melting point: 78 to 80 °C
8 | COc1ccc(OC)c(CNC(=O)N[C@@H](Cc2ccccc2)C(=O)N[C@@H](CC(C)C)B2OC3CC4CC(C4(C)C)[C@]3(C)O2)c1 (stereo partly drawn) [Example 19, N-L-phenylalanyl-L-leucine borate pinanediol ester-N′-(2,5-dimethoxy-benzylamine)-urea] | 23.4 | 38.1 | 61.7 | 43.7 | 46.6 | 57.2 | 53.1 | 65.6 | 76.1 | 91.7 | 97.3 | 98.3 | 16.9 | 82.3 | 97.2 | 39.8 | 44 | 55 | 18.2 | 69.1 | inhibition at 20 µM [5]: 90.7%; melting point: 88 to 90 °C
